In US11000033B2, “Ketone or oxime compound, and herbicide” (NISSAN CHEMICAL CORPORATION, priority 2014, dated 2021):

Legend:
Assay type in all cases: in vivo
Scirpus juncoides [1] = test: Test Example 1: herbicidal activity, application before weed generation in submerged conditions (symbol B); conditions: application herbicide amount 320 g/ha
How it was run: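 Mixed weed seeds sown in alluvial soil under 4 cm of water, with rice seedlings at the 2.5-leaf stage added. Same-day treatment: emulsion diluted to a set herbicide amount onto the water. Three weeks at 25–30 °C, then graded on a six-step scale.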

[2] = system: Echinochloa oryzacola Vasing.; test: Test Example 2: herbicidal activity, application during weed generation in submerged conditions (symbol A); conditions: Table 23; application herbicide amount 320 g/ha; grade 0-5 by criteria of Test Example 1
How it was run: (§1)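 Treatment timing was the one- to two-leaf stage, with diluted emulsifiable compound dropped onto the paddy water (depth 4 cm) over alluvial soil. All three species grew from a mixed sowing in a 25° C. to 30° C. greenhouse. Injury was judged by eye 3 weeks on.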

Scirpus juncoides [3] = test: Test Example 2: herbicidal activity, application during weed generation in submerged conditions (symbol B); conditions: Table 23; application herbicide amount 320 g/ha; grade 0-5 by criteria of Test Example 1
How it was run: as §1

[4] = system: Echinochloa crus-galli var. crus-galli; test: Test Example 3: herbicidal effect by foliage application, Wagner pot (symbol H); conditions: application herbicide amount 320 g/ha; for H (Echinochloa crus-galli var. crus-galli) herbicidal effect grade: Table 24
How it was run: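 The compound, formulated as an emulsion and diluted with water to a predetermined rate, is applied uniformly to leaves of two-week-old seedlings growing in submerged alluvial soil at 25–30 °C. Rice is included. Each plant is assessed 3 weeks later using defined criteria.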

Avena fatua = test: Test Example 4: herbicidal effect by soil treatment (symbol I)
How it was run: (§2)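 Seeds were sown in sterilized diluvial soil, covered with about 1.5 cm of soil, and the soil surface was sprayed with a water-diluted emulsion of the compound at a predetermined rate. Plants grew in a greenhouse at 25° C. to 30° C.; effects were scored visually 3 weeks after application.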

Stellaria media = test: Test Example 4: herbicidal effect by soil treatment (symbol P)
How it was run: as §2

beet = test: Test Example 4: effect on crop by soil treatment (symbol f); conditions: for f: beet, effect grade on crop: 320 g/ha
How it was run: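 Sterilized diluvial soil, spot sowing, ~1.5 cm soil cover; greenhouse 25–30° C.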

Digitaria ciliaris = test: Test Example 5: herbicidal effect by foliage application, plastic box (symbol F); conditions: 320 g/ha, 3 weeks after application
How it was run: (§3)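 Greenhouse foliar test: seedlings at 14 days, grown 25° C. to 30° C. in sterilized diluvial soil; compound applied as an aqueous dilution of an emulsion; response read 3 weeks after spraying.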

Chenopodium album = test: Test Example 5: herbicidal effect by foliage application, plastic box (symbol O); conditions: 320 g/ha, 3 weeks after application
How it was run: as §3

rice plant = test: Test Example 5: effect on crop by foliage application, plastic box (symbol b); conditions: 320 g/ha, 3 weeks after application
How it was run: (§4)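 Plants were raised from seed in a greenhouse (25° C. to 30° C.) after sowing in a plastic box of sterilized diluvial soil.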

rapeseed = test: Test Example 5: effect on crop by foliage application, plastic box (symbol g); conditions: 320 g/ha, 3 weeks after application
How it was run: as §4

[5] = application herbicide amount 320 g/ha

Row | Compound | Herbicidal effect grade, B: Scirpus juncoides (Scirpus juncoides [1]) | Herbicidal effect grade, A: Echinochloa oryzacola Vasing. [2] | Herbicidal effect grade, B: Scirpus juncoides (Scirpus juncoides [3]) | herbicidal effect on H (Echinochloa crus-galli var. crus-galli), grade 0-5 [4] | I: Avena fatua, herbicidal effect grade (Avena fatua; 320 g/ha) | P: Stellaria media, herbicidal effect grade (Stellaria media; 320 g/ha) | f: beet, effect grade on crop (beet) | F: Digitaria ciliaris, herbicidal effect (criteria 0-5) (Digitaria ciliaris) | O: Chenopodium album, herbicidal effect (criteria 0-5) (Chenopodium album) | b: directly sowed rice plant, effect on crop (criteria 0-5) (rice plant) | g: rapeseed, effect on crop (criteria 0-5) (rapeseed) | B (Scirpus juncoides) herbicidal effect grade (Scirpus juncoides [1]) | H (Echinochloa crus-galli var. crus-galli) herbicidal effect grade [4] | F: Digitaria ciliaris, herbicidal effect grade (Digitaria ciliaris) | O: Chenopodium album, herbicidal effect grade (Chenopodium album) | b: directly sowed rice plant, effect on crop grade (rice plant) | g: rapeseed, effect on crop grade (rapeseed) | further results
1 | CC(CC1CC(O)=C(c2c(C)cc(C)cc2C)C1=O)=NOCC#N (stereo not drawn) [1-102] | 3 (Herbicidal ratio of 40% or higher and lower than 70%) | 5 (Herbicidal ratio of 90% or more (almost completely withered)) | 2 (Herbicidal ratio of 20% or higher and lower than 40%) | 5 (Herbicidal ratio of 90% or more (almost completely withered)) | 0 (Herbicidal ratio of 5% or lower (almost no effect)) | 0 (Herbicidal ratio of 5% or lower (almost no effect)) | 0 (Herbicidal ratio of 5% or lower (almost no effect)) | 5 (Herbicidal ratio of 90% or more (almost completely withered)) | 3 (Herbicidal ratio of 40% or higher and lower than 70%) | 5 (Herbicidal ratio of 90% or more (almost completely withered)) | 2 (Herbicidal ratio of 20% or higher and lower than 40%) |  |  |  |  |  |  | 
2 | CON=C(CC1CC(O)=C(c2c(C)cc(C)cc2OC)C1=O)C1CC1 (mixture of isomers) [13-002] |  | 5 (Herbicidal ratio of 90% or more (almost completely withered)) | 5 (Herbicidal ratio of 90% or more (almost completely withered)) |  |  |  |  |  |  |  |  | 4 (Herbicidal ratio of 70% or higher and lower than 90%) | 5 (Herbicidal ratio of 90% or more (almost completely withered)) | 5 (Herbicidal ratio of 90% or more (almost completely withered)) | 5 (Herbicidal ratio of 90% or more (almost completely withered)) | 5 (Herbicidal ratio of 90% or more (almost completely withered)) | 4 (Herbicidal ratio of 70% or higher and lower than 90%) | I: Avena fatua, herbicidal effect grade (Avena fatua; [5]): 4 (Herbicidal ratio of 70% or higher and lower than 90%); P: Stellaria media, herbicidal effect grade (Stellaria media; [5]): 0 (Herbicidal ratio of 5% or lower (almost no effect)); f: beet, effect on crop grade (beet; [5]): 0 (Herbicidal ratio of 5% or lower (almost no effect))
3 | CON=C(C)CC1CC(OC(=O)N2CCOCC2)=C(c2c(C)cc(C)cc2C)C1=O (stereo not drawn) [1-104] | 4 (Herbicidal ratio of 70% or higher and lower than 90%) | 5 (Herbicidal ratio of 90% or more (almost completely withered)) | 4 (Herbicidal ratio of 70% or higher and lower than 90%) | 5 (Herbicidal ratio of 90% or more (almost completely withered)) | 3 (Herbicidal ratio of 40% or higher and lower than 70%) | 0 (Herbicidal ratio of 5% or lower (almost no effect)) | 0 (Herbicidal ratio of 5% or lower (almost no effect)) | 5 (Herbicidal ratio of 90% or more (almost completely withered)) | 2 (Herbicidal ratio of 20% or higher and lower than 40%) | 5 (Herbicidal ratio of 90% or more (almost completely withered)) | 4 (Herbicidal ratio of 70% or higher and lower than 90%) |  |  |  |  |  |  | 
4 | CCCCCCCCS(=O)(=O)OC1=C(c2c(C)cc(C)cc2C)C(=O)C(CC(C)=NOC)C1 (stereo not drawn) [1-107] | 4 (Herbicidal ratio of 70% or higher and lower than 90%) | 5 (Herbicidal ratio of 90% or more (almost completely withered)) | 2 (Herbicidal ratio of 20% or higher and lower than 40%) | 5 (Herbicidal ratio of 90% or more (almost completely withered)) | 0 (Herbicidal ratio of 5% or lower (almost no effect)) | 0 (Herbicidal ratio of 5% or lower (almost no effect)) | 0 (Herbicidal ratio of 5% or lower (almost no effect)) | 4 (Herbicidal ratio of 70% or higher and lower than 90%) | 0 (Herbicidal ratio of 5% or lower (almost no effect)) | 5 (Herbicidal ratio of 90% or more (almost completely withered)) | 4 (Herbicidal ratio of 70% or higher and lower than 90%) |  |  |  |  |  |  | 
5 | CON=C(C)CC1CC(OC(=O)c2cc(C)on2)=C(c2c(C)cc(C)cc2C)C1=O (stereo not drawn) [1-100] | 5 (Herbicidal ratio of 90% or more (almost completely withered)) | 5 (Herbicidal ratio of 90% or more (almost completely withered)) | 5 (Herbicidal ratio of 90% or more (almost completely withered)) | 5 (Herbicidal ratio of 90% or more (almost completely withered)) | 3 (Herbicidal ratio of 40% or higher and lower than 70%) | 0 (Herbicidal ratio of 5% or lower (almost no effect)) | 0 (Herbicidal ratio of 5% or lower (almost no effect)) | 5 (Herbicidal ratio of 90% or more (almost completely withered)) | 1 (Herbicidal ratio of 5% or higher and lower than 20%) | 5 (Herbicidal ratio of 90% or more (almost completely withered)) | 5 (Herbicidal ratio of 90% or more (almost completely withered)) |  |  |  |  |  |  | 
6 | COCCON=C(C)CC1CC(O)=C(c2c(C)cc(-n3cc(Cl)cn3)cc2C)C1=O (stereo not drawn) [9-016] |  | 5 (Herbicidal ratio of 90% or more (almost completely withered)) | 4 (Herbicidal ratio of 70% or higher and lower than 90%) |  |  |  |  |  |  |  |  | 5 (Herbicidal ratio of 90% or more (almost completely withered)) | 5 (Herbicidal ratio of 90% or more (almost completely withered)) | 5 (Herbicidal ratio of 90% or more (almost completely withered)) | 2 (Herbicidal ratio of 20% or higher and lower than 40%) | 5 (Herbicidal ratio of 90% or more (almost completely withered)) | 3 (Herbicidal ratio of 40% or higher and lower than 70%) | Herbicidal effect grade, I: Avena fatua (Avena fatua; [5]): 2 (Herbicidal ratio of 20% or higher and lower than 40%); Herbicidal effect grade, P: Stellaria media (Stellaria media; [5]): 0 (Herbicidal ratio of 5% or lower (almost no effect)); Effect on crop grade, f: beet (beet; [5]): 0 (Herbicidal ratio of 5% or lower (almost no effect))
